Data: patent US10174065B2, “Antidiabetic enolic glucoside of phenylpyruvic acid” (ZADEC APS, priority 2010, dated 2019)

What was measured:
[1] = test system: Chang cells; experiment: 2-deoxy-[3H]-D-glucose uptake assay; assay type: cell-based; settings: Chang cell cultures, 3 hrs exposure
Procedure: The glucose uptake of RX-1 and selected analogues after administration of test compounds to Chang cell cultures were determined in an operating protocol for the 2-deoxy-[^3H]-D-glucose. The protocol, which is described in more detail below, has been designed to test for the RX-1 (and RX-1 analogues) mediated glucose uptake. In Table the EC50 values for the uptake for RX-1 and representative analogues is shown.
Stock solutions of the RX-1 analogues supplied in cryo vials (DrugMode) was prepared by diluting the compound with […] sterile tissue culture grade water. This will yield a 5 mM stock solution. If the analogue […] an additional 50 μl methanol will be added (this will be recorded clearly on the log sheet). This will yield a 4 mM stock solution. Stock solutions will be kept on ice at all times and analogues will be stored in 20 μl aliquots at −80 C for subsequent use. Tubes that have been thawed will be clearly marked on the label.
RX-1 (10 μM) Positive Control Solution • To prepare a 10 μM RX-1 solution as positive control. Add 30 μl to 2970 μl modified DMEM media supplemented with 8 mM glucose.
RX-1 Analogue (31.6 μM) Test Solutions • To prepare a 31.6 μM RX-1 analogue test solution. Add 19 μl of the 5 mM to 2981 μl modified DMEM media supplemented with 8 mM glucose. To prepare a 31.6 μM RX-1 analogue test solution from a 4 mM stock solution, add 24 μl to 2976 μl modified DMEM media supplemented with 8 mM glucose.
Cell Seeding in 24-Well Plates • Chang cells are cultured according to procedures described in MRC cell culture SOPs: TC-B2a Thawing of cells and TC-B1a Cell line maintenance—general principles. Make sure cells are in the log phase (i.e. <70% confluence) and less than 20 passages. • Harvest cells using 0.25% (w/v) Trypsin/0.53 mM EDTA solution. • Count cells and resuspend to 30 000 cells/ml (Chang cell seeding density for 24-well plate=30 000 cells/ml) in EMEM (with pyruvate and NEAA, but without L-glutamate (Lonza, USA) containing 10% FBS (Gibco, UK) and pipette 1 ml/well cell suspension to a 24-well plate corresponding to 30 000 cells/well.
• after 3 days of cell growth, aspirate medium • wash cells once with pre-warmed DPBS at 37° C. • add 500 μl of pre-warmed 37° C. DMEM/0.1% BSA (without phenol red, glucose and pyruvate) to serum starve cells to remove residual glucose and FBS • incubate at 37° C. in humidified air and 5% CO2 for 30 min • aspirate DMEM/0.1% BSA (without phenol red, glucose and pyruvate) • Prepare test dilutions as specified in the plate layout (see below) • add 500 μl pre-warmed 37° C. of test dilution per well according to plate layout • incubate at 37° C. in humidified air and 5% CO2 for 3 hrs • remove test medium and wash cells once with DPBS (37° C.) • add 250 μl of test medium containing 0.5 μCi/ml ^3H-2-DOG to each well use (0.5 μl ^3H to 1 ml medium) • Incubate cells at 37° C. in humidified air and 5% CO2 for 15 min • Aspirate medium • To stop the reaction, wash cells twice with ice-cold DPBS • Aspirate DPBS and ensure that wells are as dry as possible • Lyse cells by adding 1 ml of 0.3N NaOH/1% SDS and incubate at 37° C. for at least 45 min • Mix cell lysate thoroughly before subsequent use in LSC and Bradford protein determination

[2] = test system: 3T3-L1 adipocytes; experiment: Glucose uptake in transformed 3T3-L1 adipocytes (colourometric glucose oxidase method); assay type: cell-based; settings: for Glucose conc.: glucose remaining in the media after 3 hour exposure to the cells; for Glucose conc. / Glucose Uptake: media containing 8 mM glucose; for Glucose Uptake: glucose uptake from the media after 3 hour exposure; for % uptake: relative to DMSO vehicle = 100.00, 3 hour glucose uptake; for glucose uptake over a 3 hour culture period: 3T3-L1 adipose cells
Procedure: 3T3-L1 cells were transformed in culture using modified DMEM differentiation media supplemented with insulin, dexametasone and isobutylmethylxanthine and cultured for 3 days. The transformed 3T3-L1 adipocytes were then cultured for a further 5 days in modified DMEM supplemented with 10% FCS before being exposed to insulin, metformin and compounds of the present invention (see Table 1). Glucose uptake over a three (3) hour period was determined after the 5 days of treatment using a colourometric glucose oxidase method (Biovision Inc, USA).
The glucose concentration column represents the glucose concentration remaining in the media following three (3) hour exposure to the cells. The glucose uptake column represents glucose uptake from the media after a 3 hour exposure. SD represents the standard deviation. The percentage increases calculated from the relevant solvent vehicle and the P=values are reflected in the last two columns respectively.

| Molecule | EC50 [1] | Glucose conc. [2] | Glucose Uptake [2] | % uptake [2] | glucose uptake over a 3 hour culture period [2] |
| --- | --- | --- | --- | --- | --- |
| O=C(O)/C(=C/c1ccccc1F)O[C@H]1O[C@@H](CO)[C@H](O)[C@@H](O)[C@@H]1O [RX-4, (Z)-3-(2-Fluorophenyl)-2-(((2R,3S,4R,5R,6S)-3,4,5-trihydroxy-6-(hydroxymethyl)tetrahydro-2H-pyran-2-yl)oxy)acrylic acid] | 80.8 µM | – | – | – | – |
| CN(C)C(=N)N=C(N)N [Metformin, reference compound] | – | 3.27 nM/ul | 2.73 nM/ul | 117.14% | – |
| Cc1cccc(/C=C(\O[C@H]2O[C@@H](CO)[C@@H](O)[C@@H](O)[C@@H]2O)C(=O)O)c1 [RX-18, (Z)-3-(m-Tolyl)-2-(((2R,3S,4R,5S,6S)-3,4,5-trihydroxy-6-(hydroxymethyl)tetrahydro-2H-pyran-2-yl)oxy)acrylic acid] | 9.5 µM | – | – | – | – |
| Insulin | – | 2.86 nM/ul | 3.13 nM/ul | 134.03% | – |
| COC(=O)/C(=C/c1ccccc1)O[C@@H]1O[C@H](CO)[C@@H](O)[C@H](O)[C@H]1O [RX-1 acrylate, (Z)-Methyl 3-phenyl-2-((2S,3R,4S,5S,6R)-3,4,5-trihydroxy-6-(hydroxymethyl)tetra hydro-2H-pyran-2-yloxy)acrylate] | – | 2.82 nM/ul | 3.16 nM/ul | 135.53% | significantly increased |
| O=C(O)/C(=C/c1cccc(F)c1)O[C@H]1O[C@@H](CO)[C@@H](O)[C@@H](O)[C@@H]1O [RX-5, (Z)-3-(3-Fluorophenyl)-2-(((2R,3S,4R,5S,6S)-3,4,5-trihydroxy-6-(hydroxymethyl)tetrahydro-2H-pyran-2-yl)oxy)acrylic acid] | 114 µM | – | – | – | – |
| COC(=O)/C(=C/c1ccccc1)O[C@@H]1O[C@H](COC(C)=O)[C@@H](OC(C)=O)[C@H](OC(C)=O)[C@H]1OC(C)=O [RX-1 triacetate, (2R,3R,4S,5R,6S)-2-(Acetoxymethyl)-6-((Z)-3-methoxy-3-oxo-1-phenylprop-1-en-2-yloxy)tetrahydro-2H-pyran-3,4,5-triyl triacetate] | – | 2.92 nM/ul | 3.05 nM/ul | 130.78% | significantly increased |
| Cc1cccc(/C=C(\O[C@H]2O[C@@H](CO)[C@H](O)[C@@H](O)[C@@H]2O)C(=O)O)c1 [RX-19, (Z)-3-(m-Tolyl)-2-(((2R,3S,4R,5R,6S)-3,4,5-trihydroxy-6-(hydroxymethyl)tetrahydro-2H-pyran-2-yl)oxy)acrylic acid] | 181 µM | – | – | – | – |
| O=C(O)/C(=C/c1cccc(C(F)(F)F)c1)O[C@H]1O[C@@H](CO)[C@H](O)[C@@H](O)[C@@H]1O [RX-20, (Z)-3-(3-(Trifluoromethyl)phenyl)-2-(((2R,3S,4R,5R,6S)-3,4,5-trihydroxy-6-(hydroxymethyl)tetrahydro-2H-pyran-2-yl)oxy)acrylic acid] | 5.7 µM | – | – | – | – |

The next lines start with results.

| EC50 [1] | Molecule | Glucose conc. [2] | Glucose Uptake [2] | % uptake [2] | glucose uptake over a 3 hour culture period [2] |
| --- | --- | --- | --- | --- | --- |
| 6.99 µM | O=C(O)/C(=C/c1c(F)cccc1Cl)O[C@H]1O[C@@H](CO)[C@@H](O)[C@@H](O)[C@@H]1O [RX-16, (Z)-3-(2-Chloro-6-fluorophenyl)-2-(((2R,3S,4R,5S,6S)-3,4,5-trihydroxy-6-(hydroxymethyl)tetrahydro-2H-pyran-2-yl)oxy)acrylic acid] | – | – | – | – |
| 286 µM | O=C(O)/C(=C/c1ccccc1Cl)O[C@H]1O[C@@H](CO)[C@@H](O)[C@@H](O)[C@@H]1O [RX-21, (Z)-3-(2-Chlorophenyl)-2-(((2R,3S,4R,5S,6S)-3,4,5-tri hydroxy-6-(hydroxymethyl)tetrahydro-2H-pyran-2-yl)oxy)acrylic acid] | – | – | – | – |
| 9.35 µM | O=C(O)/C(=C/c1ccccc1[N+](=O)[O-])O[C@H]1O[C@@H](CO)[C@H](O)[C@@H](O)[C@@H]1O [RX-2, (Z)-3-(2-Nitrophenyl)-2-(((2R,3S,4R,5R,6S)-3,4,5-trihydroxy-6-(hydroxymethyl)tetrahydro-2H-pyran-2-yl)oxy)acrylic acid] | – | – | – | – |
| 105 µM | O=C(O)/C(=C/c1cccc(C(F)(F)F)c1)O[C@H]1O[C@@H](CO)[C@@H](O)[C@@H](O)[C@@H]1O [RX-10, (Z)-3-(3-(Trifluoromethyl)phenyl)-2-(((2R,3S,4R,5S,6S)-3,4,5-trihydroxy-6-(hydroxymethyl)tetrahydro-2H-pyran-2-yl)oxy)acrylic acid] | – | – | – | – |
